Source: patent US20260076974A1, “COMPOSITIONS FOR PREVENTING AND TREATING INFECTION COMPRISING AN ARTIFICIAL SWEETENER” (Brunel University London, priority 2022, published 2026)
Where two headings read alike, the source gives them in different places.

How the values were obtained:
P. aeruginosa PA14 [1] = assay: Growth inhibition assay in nutrient medium (OD600); assay type: cell-based, Pseudomonas aeruginosa
Staphylococcus aureus = conditions: […] ace-K versus LB control
A. baumannii [2] = system: A. baumannii
Excerpt: Motility is a central facet of bacterial virulence and facilitates bacterial dissemination to the blood stream or other sites within an infected host. […] To validate the gene expression data, we performed twitching assays at a range of different concentrations.

A. baumannii AB5075 [3] = system: A. baumannii AB5075; parameters: species or system Acinetobacter baumannii; conditions: ace-K dressing applied for 1 hour
Description: In this model, porcine skin was either burnt or lacerated and the wound infected with A. baumannii AB5075 and left for 3.5 hours to allow a biofilm to form. The dressing was applied for 1 hour and viable cells were collected after treatment. […] Samples were tested in biological triplicate with technical quadruplets.
(8% (w/w)), potassium tetraborate (3% (w/w)), and PVA (3% ((w/w)) were added into a beaker and mixed with deionized water. The mixture was placed in a water bath and heated at 80° C. for three hours with watch glass while being swirled with a stirring rod every 1 hour. Once hydrogels had been obtained, they were placed in a petri dish with custom-made moulds.

A. baumannii AB5075 [4] = conditions: […] ace-K (sub-MIC), two hours, compared to untreated control
Description: Cultures were incubated at 37° C. and 180 rpm shaking for two hours. Following incubation 10 μL of a 1 mg/mL DAPI solution and 10 μL of a 5 mg/mL solution of Nile Red were added to each flask before returning to the incubator for 30 mins. Once stained, cultures were centrifuged at 5000 rpm for five minutes and the supernatant discarded. Pellets were resuspended in 10 ml of sterile 4% formaldehyde in PBS and incubated in the dark for 30 mins to fix. Once fixed, samples were centrifuged at 5000 rpm and pellets were washed twice with 10 mL sterile PBS. After washing pellets were resuspended in 10 ml of sterile PBS and 10 μL of the cell suspension was spotted onto a glass slide and allowed to air dry in the dark. Three spots were prepared per flask.

A. baumannii [5] = assay: Crystal violet biofilm formation assay / minimum biofilm inhibition concentration; assay type: cell-based, Acinetobacter baumannii
Description: (§1) Biofilm formation is linked to 80% of hospital-associated infections and is a major factor in the routine failure of antibiotic therapy.
(§2) All samples were exposed to the artificial sweeteners in LB medium for 19 hours before crystal violet biofilm assay was performed. […] The data present the mean of three biological replicates±SD. *p≤0.05, *p≤0.001 versus the bacterial growth in control samples.
(§3) All samples were exposed to artificial sweeteners for 19 hours before crystal violet biofilm assay was performed.

A. baumannii AB5075 [6] = system: A. baumannii AB5075
[7] = system: Stenotrophomonas maltophilia
E. coli NCTC 13476 = conditions: live cell imaging over time
Excerpt: (§4) To visualise the localisation of these membrane bulges and to gain insight into the contents of the bulges, an E. coli MG1655 strain with labelled mCherry-Fis and CFP-FtsZ was used (FIG. 62CD). Fis is a small DNA-binding protein that binds to a large number of regions of the chromosome, allowing the visualisation of the […] in living cells. FtsZ is a component of the Z ring, showing future cell division sites.

A. baumannii cells = conditions: live cell imaging over time
Excerpt: as §4

A. baumannii AB5075 [8] = assay: Growth inhibition assay in LB medium (OD600); assay type: cell-based, Acinetobacter baumannii
[9] = system: A. baumannii gene expression; conditions: |logFC|>1 and p<.05
Description: Cells were spun down and washed in RNAlater to preserve mRNA. RNA was isolated using a Qiagen RNAeasy Kit with column DNAase digestion. RNA integrity was determined using a Bioanalyzer. Samples were further processed for RNA sequencing on an Illumina MiSeq with 12 million reads per sample. Quality control and adapter trimming was performed with bcl2fastq.

PpilA promoter = conditions: 0, […], 0.66% or […] ace-K, 2 h
Description: The expression from the PpilA promoter was measured using a miniTn7T-based insertion bearing a PpilA::gfp transcriptional fusion (AB5075/miniTn7T-zeo-pilA::gfpmut3). An AB5075/miniTn7T-zeo-gfpmut3 strain, bearing the empty miniTn7T backbone, was used as a control. […] Cultures were incubated for 2 h at 37° C., 180 rpm. Then, samples were withdrawn from the cultures, washed with PBS and eventually resuspended in PBS. Two technical repeats of each sample were allocated in a 96-well plate and their OD600 and GFP fluorescence (485 nm excitation, 535 nm emission) were measured. The fluorescence readings were normalised by their respective OD600 and the baseline fluorescence obtained from the empty transposon control was subtracted from that obtained with the strain bearing the PpilA::gfpmut3 the promoter fusion measurements.

[10] = system: A. baumannii colony biofilms
P. aeruginosa PA14 [11] = assay: Crystal violet biofilm formation assay / minimum biofilm inhibition concentration; assay type: cell-based, Pseudomonas aeruginosa
Description: as §1, §2, §3

P. aeruginosa PA14 [12] = conditions: established 18 hour biofilm, 8.85% ace-K, 24 hours
Description: (§5) Plates were incubated for 18 hours at 37° C. and 180 rpm to allow biofilms to form. Following incubation, growth medium was removed from the wells and biofilms were washed three times with 200 μL of sterile PBS to remove any unbound planktonic cells. […] Plates were incubated for a further 24 hours at 37° C. and 180 rpm. Following this treatment biofilms were stained with 0.1% crystal violet as detailed above. Reduction in biofilm was represented as a percentage reduction compared to the control.
(§6) To assess the ability of artificial sweeteners to disperse biofilms, overnight cultures were diluted in 96-well plates to OD600 0.5-0.1 in growth medium. Plates were incubated for 18 h at 37° C. and 180 rpm to allow biofilms to form. Following incubation growth medium was removed and wells washed three times with 200 μl of sterile PBS to remove any unattached cells. Fresh growth medium supplemented with artificial sweetener or an appropriate vehicle control was added to the wells. Plates were incubated for a further 24 h at 37° C. and 180 rpm. Following this treatment biofilms were stained with 0.1% crystal violet as detailed above. Biofilm dispersal was represented as a percentage reduction compared with the control.

A. baumannii AB5075 [13] = conditions: established 18 hour biofilm, 8.85% ace-K, 24 hours
Description: as §5, §6

Enterococcus faecalis = conditions: […] ace-K versus LB control
[14] = system: P. aeruginosa colony biofilms
[15] = LB with sweetener plus Mg2+ and Ca2+
[16] = LB with ace-K plus Mg2+ and Ca2+
[17] = 3% (w/v) sucralose, […] (w/v) ace-K, LB medium, 19 hours
[18] = in the presence of divalent cations (CaCl2 2 mM and MgSO4 1 mM)
[19] = submerged in 8.85% (w/v) ace-K solution for 1 hour
[20] = surgical gauze soaked in 8.85% ace-K, 1 hour, compared to water-soaked dressing

Description for Klebsiella pneumoniae: N=3 biological triplicate, each with technical triplicates).

CC1=CC(=O)[N-]S(=O)(=O)O1.[K+] [ace-K, potassium salt of 6-methyl-1,2,3-oxathiazine-4 (3H)-one 2,2-dioxide]
concentration showing significant / effective growth inhibition (P. aeruginosa PA14 [1]): ≥ 0.89% | effect of Mg2+ and Ca2+ cation supplementation on the growth inhibitory effect (P. aeruginosa PA14 [1]; [15]): at least partially reverse | bacterial growth in the presence of sweetener (P. aeruginosa PA14 [1]; […] sweetener, 19 hours, 37° C.): inhibit the growth | concentration at which growth inhibition plateaus; no growth above (P. aeruginosa PA14 [1]; ace-K 0.09-7.08%): around 5% | growth in LB including ace-K (Staphylococcus aureus): minor reduction in growth in the presence of ace-K, but this was not significant | concentration with significant reduction in bacterial twitching motility (A. baumannii [2]): ≥ 0.33% | twitching motility over increasing concentrations (A. baumannii [2]; AB5075, ace-K): dose-dependent decrease | twitching motility over increasing concentrations (A. baumannii [2]; strains AB0057 and BAA 747, ace-K): dose-dependent decrease | effect of Mg2+ and Ca2+ cation supplementation on the growth inhibitory effect (E. coli; [16]): at least partially reverse | growth in LB including ace-K (E. coli; […] ace-K versus LB control): significantly inhibits the growth | effect of Mg2+ and Ca2+ cation supplementation on the growth inhibitory effect (Klebsiella pneumoniae; [16]): at least partially reverse | growth in LB including ace-K (Klebsiella pneumoniae; […] ace-K versus LB control): significantly inhibits the growth | log reduction in viable cells versus the water control (A. baumannii AB5075 [3]; burn model): 2.16 log | log reduction in viable cells versus the water control (A. baumannii AB5075 [3]; laceration model): 0.5 log | nuclear dye uptake (A. baumannii AB5075 [4]): significant increases | concentration with significant impact on / inhibition of biofilm formation (A. baumannii [5]): 0.09% | biofilm formation (A. baumannii [5]; [17]): significantly inhibit biofilm formation | cell viability (A. baumannii AB5075 [6]; in the presence of cations when supplementing with ace-K): not affected | concentration reaching transformation abolition (A. baumannii AB5075 [6]; [18]): ≥ 0.66% | concentration with significant drop in transformability (A. baumannii AB5075 [6]; [18]): 0.33% | concentration at which transformation is completely abolished (A. baumannii AB5075 [6]; without added cations): ≥ 0.66% | effect of Mg2+ and Ca2+ cation supplementation on the growth inhibitory effect [7, 16]: at least partially reverse | growth in LB including ace-K ([7]; […] ace-K versus LB control): significantly inhibits the growth | effect of Mg2+ and Ca2+ cation supplementation on the growth inhibitory effect (Enterobacter cloacae; [16]): at least partially reverse | growth in LB including ace-K (Enterobacter cloacae; […] ace-K versus LB control): significantly inhibits the growth | cell morphology upon ace-K exposure (E. coli NCTC 13476): filamented, extending to many times their original size before eventually, forming characteristic membrane bulges and ultimately lysing | cell morphology upon ace-K exposure (A. baumannii cells): stop dividing and lose structural integrity, swelling in size rapidly | concentration showing significant / effective growth inhibition (A. baumannii AB5075 [8]): ≥ 0.89% | effect of Mg2+ and Ca2+ cation supplementation on the growth inhibitory effect (A. baumannii AB5075 [8]; [15]): at least partially reverse | bacterial growth in the presence of sweetener (A. baumannii AB5075 [8]; […] sweetener, 19 hours, LB medium): inhibit the growth | concentration at which growth inhibition plateaus; no growth above (A. baumannii AB5075 [8]; ace-K 0.09-7.08%): around 5% | number of genes significantly differentially expressed [9]: 464 genes | pilA expression (GFP fluorescence normalised by OD600) (PpilA promoter): clear dose dependent response | number of viable bacteria within the biofilm after ace-K wash [10, 19]: significant reduction | bacteria numbers after ace-K augmented dressing [10, 20]: significant reductions | biofilm formation (P. aeruginosa PA14 [11]; [17]): significantly inhibit biofilm formation | concentration resulting in almost complete abolition of biofilm formation (P. aeruginosa PA14 [11]; 19 hours exposure): 1.77% | reduction of total biofilm biomass compared to the control (P. aeruginosa PA14 [12]): 69.7% | reduction of total biofilm biomass compared to the control (A. baumannii AB5075 [13]): 48.8% | growth in LB including ace-K (Enterococcus faecalis): significantly inhibits the growth | number of viable bacteria within the biofilm after ace-K wash [14, 19]: significant reduction | bacteria numbers after ace-K augmented dressing [14, 20]: significant reductions
